Assay results reported in patent US6451288B1, “Method of treating lung diseases with uridine 5′-diphosphate and analogs thereof” (The University of North Carolina at Chapel Hill, priority 1997, dated 2002).

How the values were obtained:
[1] = tested on: human nasal epithelial cells; assay: Cytosolic Ca2+ measurement (Fura-2) in human nasal epithelial cells; type: cell-based
Experimental: (§1) Human nasal epithelial cells were harvested from turbinates using protease XIV (Sigma, St. Louis, Mo.) for 24-48 h at 4° C., as previously described. R. Wu, et al., Am. Rev. Respir. Dis. 132, 311-320 (1985). Cytosolic Ca^2+ and inositol phosphate measurements were made on nasal cell monolayers plated on porous Transwell Col filters (pore diameter 0.45 μm; Costar, Cambridge, Mass.) and maintained in Ham's F12 media supplemented with 10 ng/mL epidermal growth factor, 3.75 ng/mL endothelial cell growth factor, 500 ng/mL hydrocortisone, 5 ng/mL insulin, and 1 mM CaCl2 (Ham's F12+4X medium). Assays were carried out 7 to 10 days after seeding, a time coincident with the development of the maximal transepithelial potential difference according to N. Nakahata & T. K. Harden, Biochem. J. 241, 337-344 (1987).
(§2) Nasal cells grown on Transwell Col filters affixed to O-rings were maintained in F12+4X medium and studied 7-10 days after cell plating as described above. For Ca^2+i measurements, cells were loaded with Fura-2 and mounted in a miniature Ussing chamber over an objective of a microscope (Zeiss) coupled to a microfluorimeter, and cytosolic Ca^2+i levels were quantitated as previously described in Paradiso et al., supra. The fluorescence intensity ratio (excitation 340/380; emission λ 450 nm) was collected from a field of 30-40 nasal cells on monolayers and converted to Ca^2+ as previously described in E. H. Larsen et al, J. Physiol. 424, 109-131 (1990). For simultaneous measurements of Cl^− secretion, the transepithelial potential difference (TEP) was measured by a Voltage-Clamp/Pulse Generator (Model VCC600, Physiologic Instruments, San Diego, Calif.) and recorded on a two-channel recorder (Linsesis Model L200S). To calculate changes in Cl^− secretory current (ΔICl^−), a defined 1 sec current pulse was delivered across the monolayer every 10 sec. The nasal tissue was converted from its native Na^+ absorptive state to a Cl^− secretory state by exposing monolayers to a luminal medium containing 0 Na^+/low Cl^− and to a basolateral medium of Krebs bicarbonate Ringer solution.

[2] = Hydrolysis of [3H]UTP and [3H]UDP on human nasal epithelial cell surfaces; type: in vitro ADME; details: human, pH 7.4; mucosal, time course; read-out: Half life (t½)
Experimental: (§3) Nasal monolayers were grown to confluence on 6.5 mm Transwells (Costar) as indicated above. The cells were washed twice and preincubated with 300 μl HEPES-buffered (pH, 7.4) DMEM medium for at least one hour prior to the addition of the [^3H]-nucleotides to ensure that any endogeneously released ATP was degraded. Incubations were initiated by addition of 2 μM [^3H]UTP or [^3H]UDP (0.5 μCi each) to either cell surface. Incubations were terminated at the indicated times by transferring the medium to a tube containing 30 μl 50 mM EDTA and boiled for 2 min. Nucleotides were separated by HPLC (Shimadzu Scientific Instruments, Inc., Columbia, Md.) via a strong anion exchange column (Rainin Instrument Co., Emeryville, Calif.) using a two solvent system consisting of buffer A (45 mM ammonium formate, pH 4.6) and buffer B (250 mM sodium phosphate, pH 2.7). A linear gradient was developed from 100% buffer A to 100% B during the first 25 min. The column then was eluted with 100% buffer B for the […] and with 100% buffer A for an additional 15 min from 45 to 60 min. Absorbance at 260 nm was monitored with a LSA UV detector (Shimadzu), and radioactivity was monitored on-line with a Flo-One detector (Packard Instrument Co., Meridien, Conn.). [^3H]Nucleotides and [^3H]nucleosides were quantitated as previously described. Id. Confluent polarized cells were incubated for 20 min at 37° C. in the presence of 1 μM (0.2 μCi) of [3H]UTP, [^3H]UDP, or [^3H]UDP combined with 100 μM ATP. All additions were to the mucosal bath (300 μl final volume). Incubations were terminated by transferring the mucosal medium to an Eppendorf tube containing 30 μl 50 mM EDTA, followed by boiling. [^3H]Species were separated by HPLC as indicated in Example 6. Hydrolysis of both [^3H]UTP and [^3H]UDP on the surface of human nasal epithelial cells was determined on both cell surfaces by the following procedures: primary cultures of HNE cells were grown to confluence on 6.5 mm Transwells as a polarized epithelium. The cells were washed twice with pre-warmed DMEM-HEPES medium (pH 7.4), and were pre-incubated for 1 hour at 37° C with 0.5 mL of medium added on each side. Incubations were initiated by the addition 50 μl of 10 μM (0.5 μCi) [^3H]UTP or [^3H]UDP on the indicated cell surface. Medium samples were collected during a 20 min incubation period and analyzed by HPLC as described in Example 6. The values represent the mean (±range from the mean) from two experiments performed with duplicate samples.

[3] = tested on: human nasal epithelial cells; assay: as above; type: in vitro ADME; details: for Nucleotide Hydrolysis MUCOSAL / Nucleotide Hydrolysis SEROSAL: 20 min incubation period, mean ± range of two experiments; for Nucleotide Hydrolysis SEROSAL: serosal surface
Experimental: as §3

human P2Y6 receptor = biological target: T1, human P2Y6 receptor (Homo sapiens, UniProt Q15077); assay: Inositol phosphate accumulation in 1321N1 astrocytoma cells overexpressing the human P2Y6 receptor; type: cell-based; details: 60 min, hexokinase/glucose present
T1 construct: expressed in transfected cells
T1 sequence (Q15077 whole entry): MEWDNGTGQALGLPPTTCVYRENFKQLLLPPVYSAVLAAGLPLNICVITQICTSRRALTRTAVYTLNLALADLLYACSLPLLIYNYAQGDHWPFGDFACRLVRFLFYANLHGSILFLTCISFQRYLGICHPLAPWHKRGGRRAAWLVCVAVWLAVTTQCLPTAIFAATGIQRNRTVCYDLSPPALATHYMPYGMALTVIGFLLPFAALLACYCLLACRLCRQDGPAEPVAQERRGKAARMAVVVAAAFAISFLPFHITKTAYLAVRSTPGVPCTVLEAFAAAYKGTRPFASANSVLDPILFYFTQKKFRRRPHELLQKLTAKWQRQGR
Experimental: The following method was used for measuring inositol phosphate accumulation of the UDP analogs described within this example as drugs. 1321N1 astrocytoma cells, stably overexpressing the human P2Y6 receptor (Nicholas, et al., Mol. Pharmacol. 50, 224-229 (1996)), were seeded into 96 well plates (7500 cells/well) in DMEM-H supplemented with 10% FCS. After 48 hours, the growth media was replaced with inositol-free DMEM-H supplemented with 2.5% dialyzed FCS and [^3H]-inositol (0.2 uCi/well) to radiolabel hormone-responsive inositol phospholipid pools. Cells were stimulated 48 hours later. At the time of assay, the culture media was supplemented with 25 mM HEPES (pH 7.4) and 10 mM […] to prevent hydrolysis of [^3H]-inositol phosphates. In addition, hexokinase (0.03 U/well) and glucose (50 mM final concentration) was added to the cultures to provide an enzymatic mechanism for the depletion of nucleoside triphosphates contaminating drug solutions or released from cells prior to/or during cell stimulation reactions. Drugs were diluted in phosphate buffered saline containing hexokinase/glucose and incubated at 37° for 30 minutes prior to addition to cells. Reactions were terminated after 60 minutes by rapid aspiration of media followed by the addition of ice cold EDTA (1.0 mM) and incubation on ice for at least 15 minutes prior to resolution of [^3H]-inositol phosphates by ion exchange chromatography as described (Brown, et. al., supra).

[4] = tested on: human nasal epithelial cells; assay: [3H]inositol phosphate formation in polarized human nasal epithelial cells; type: cell-based; details: Homo sapiens, Epithelial cell, 10 min; added to mucosal medium, 10 min; read-out: EC50 for stimulating inositol phosphate formation
Experimental: as §1
Confluent human nasal epithelial cells as described in Example 1 were labeled for 18 h in inositol-free DMEM containing 4.5g/L glucose and 5 μCi/mL of [^3H]myo-inositol. These cells were pre-incubated with 10 mM LiCl and challenged with agonists for an additional 10 min. No changes of medium were made subsequent to addition of [^3H]myo-inositol to avoid release of endogenous ATP from stressed cells. E. R. Lazarowski et al., Br. J Pharmacol. 116, 1619-1627 (1995). Incubations were terminated by addition of 5% ice-cold trichloroacetic acid and the resultant [^3H]inositol phosphates were separated on Dowex AG1-X8 columns as described in A. M. Paradiso et al., Nature 377, 643-646 (1995).

[5] = tested on: human nasal epithelial cells; assay: Cl- secretion (transepithelial potential difference, Ussing chamber) in human nasal epithelial cells; type: cell-based
Experimental: as §1, §2

For Nc1ncnc2c1ncn2[C@@H]1O[C@H](COP(=O)(O)OP(=O)(O)OP(=O)(O)O)[C@@H](O)[C@H]1O [ATP, reference compound], the “Responses following multiple additions of UDP” value ([1]; after multiple additions of UDP) was “retained”.
In the case of O=c1ccn([C@@H]2O[C@H](COP(=O)(O)OP(=O)(O)OP(=O)(O)O)[C@@H](O)[C@H]2O)c(=O)[nH]1 [[^3H]UTP], the half-life [2] is reported as 14 ± 2 min, the Hydrolysis ([3]; 1 μM, 20 min, mucosal surface, 37° C.) is reported as 73±16% and the “Nucleotide Hydrolysis MUCOSAL” value ([3]; mucosal surface) is reported as 17 ± 22. For the same compound, the “Nucleotide Hydrolysis SEROSAL” value [3] was 98 ± 11.
With O=c1ccn([C@@H]2O[C@H](COP(=O)(O)OP(=O)(O)O)C[C@H]2O)c(=O)[nH]1 [Compound H, 3′-Deoxyuridine 5′-diphosphate] the EC50 (human P2Y6 receptor) was 2.1 µM.
With Cc1cn([C@@H]2O[C@H](COP(=O)(O)OP(=O)(O)O)[C@@H](O)[C@H]2O)c(=O)[nH]c1=O [Compound A, 5-Methyluridine 5′-diphosphate] the EC50 (human P2Y6 receptor) was 0.5 µM.
In the case of O=c1nc(NC2CCCC2)ccn1[C@@H]1O[C@H](COP(=O)(O)OP(=O)(O)O)[C@@H](O)[C@H]1O [Compound I, N-Cyclopentylcytidine 5′-diphosphate], the EC50 (human P2Y6 receptor) is reported as 8.6 µM.
Work on CCCCCCNc1ccn([C@@H]2O[C@H](COP(=O)(O)OP(=O)(O)O)[C@@H](O)[C@H]2O)c(=O)n1 [Compound E, N-hexylcytidine 5′-diphosphate] yielded an EC50 (human P2Y6 receptor) of 25.5 µM.
In the case of O=c1nc(N2CCOCC2)ccn1[C@@H]1O[C@H](COP(=O)(O)OP(=O)(O)O)[C@@H](O)[C@H]1O [Compound F, 4-(N-morpholino)uridine 5′-diphosphate], the EC50 (human P2Y6 receptor) is reported as 55.1 µM.
For O=c1[nH]c(=O)n([C@@H]2O[C@H](COP(=O)(O)OP(=O)(O)O)[C@@H](O)[C@H]2O)cc1C#Cc1ccccc1 [Compound G, 5-(Phenylethynyl)uridine 5′-diphosphate], the EC50 (human P2Y6 receptor) was 0.02 µM.
COc1ccn([C@@H]2O[C@H](COP(=O)(O)OP(=O)(O)O)[C@@H](O)[C@H]2O)c(=O)n1 [Compound D, 4-Methoxyuridine 5′-diphosphate] gave an EC50 (human P2Y6 receptor) of 4.7 µM.
With CCCCCCOc1ccn([C@@H]2O[C@H](COP(=O)(O)OP(=O)(O)O)[C@@H](O)[C@H]2O)c(=O)n1 [Compound B, 4-Hexyloxyuridine 5′-diphosphate] the EC50 (human P2Y6 receptor) was 3 µM.
For CCCCCCSc1ccn([C@@H]2O[C@H](COP(=O)(O)OP(=O)(O)O)[C@@H](O)[C@H]2O)c(=O)n1 [Compound J, 4-Hexylthiouridine 5′-diphosphate], the EC50 (human P2Y6 receptor) was 1.8 µM.
With O=c1ccn([C@@H]2O[C@H](COP(=O)(O)OP(=O)(O)O)[C@@H](O)[C@H]2O)c(=O)[nH]1 [[^3H]UDP] the half-life [2] was 27 ± 3 min, the “Nucleotide Hydrolysis MUCOSAL” value ([3]; mucosal surface) was 87 ± 6 and the “Nucleotide Hydrolysis SEROSAL” value [3] was 70 ± 9.
In the case of O=c1ccn([C@@H]2O[C@H](COP(=O)(O)OP(=O)(O)OP(=O)(O)O)[C@@H](O)[C@H]2O)c(=O)[nH]1 [UTP, uridine 5′-triphosphate, reference compound], the EC50 [4] is reported as 0.28 ± 0.035 µM, the ΔCa2+, UDP-treated cells ([1]; UDP-treated cells, n=8) is reported as 310 ± 35 nM and the “ΔCa2+, control cells” value ([1]; control cells, n=19) is reported as 374 ± 24 nM. For the same compound, the “Cl- secretory response (ΔICl-), mucosal bath” value ([5]; 100 μM, mucosal) was 74±11 μA/cm^2, the “Cl- secretory response (ΔICl-), serosal bath” value ([5]; 100 μM, serosal) was 34±3 μA/cm^2 and the ΔCl-, UDP-treated cells ([5]; UDP-treated cells, n=8, the values are: ΔICl- (Cl- secretory current)) was -61 ± 10 µA/cm². For the same compound, the “ΔICl-, control cells” value ([5]; control cells, n=12) was −74±11 μA/cm^2 and the “Hydrolysis rate of mucosal UTP relative to mucosal UDP” value ([3]; mucosal) was 2-3 fold.
For CN(C)c1ccn([C@@H]2O[C@H](COP(=O)(O)OP(=O)(O)O)[C@@H](O)[C@H]2O)c(=O)n1 [Compound C, N,N-dimethylcytidine 5′-diphosphate], the EC50 (human P2Y6 receptor) was 41.7 µM.
